Earlier results in patent US7396658B2, “Methods for screening HIF like ouabain-resistant Na+—K+-ATPase agents” (priority 1998, dated 2008).

Columns and labels:
[1] = molecular target: T1, ouabain-resistant α1 isoform (obtained from rat kidney) (Rattus norvegicus, UniProt P06685); conditions: α1 from rat kidney vs α2/α3 from rat brain axolemma; factor greater
T1 construct: the ouabain-resistant α1 isoform (obtained from rat kidney); host or cells: rat kidney tissue

[2] = molecular target: ouabain-resistant Na^+—K^+-ATPase (Rattus norvegicus, UniProt P06685); conditions: generally needed

C[C@@H]1O[C@@H](O[C@H]2C[C@@H](O)[C@]3(CO)[C@H]4[C@H](O)C[C@]5(C)[C@@H](C6=CC(=O)OC6)CC[C@]5(O)[C@@H]4CC[C@]3(O)C2)[C@H](O)[C@H](O)[C@H]1O [ouabain]
concentrations of ouabain required for inactivation of the ouabain-resistant α1 isoform, relative to that for inactivating the ouabain-sensitive α2/α3 isoforms [1]: 10^2-10^3 | concentration needed to inhibit ouabain-resistant Na+-K+-ATPases relative to that inhibiting ouabain sensitive Na+-K+-ATPase [2]: ≥ 100 fold
